Test results as given in article PMC5962679 (Frontiers in Cellular and Infection Microbiology, 2018).
Ends that are not written are not given here.

How the values were obtained:
Test in all cases: biochemical
Assay type in all cases: binding
Conditions in all cases: for inhibition at 250 µM: 24 h, read-out: Binding percentage
HLA-DRB1*0701 = HLA-DRB1*0701 (Homo sapiens, UniProt P01903+P01911, A100R/A102G/A103Q/D57E/D86V/E43K/F76Y/K127E/L162R/M171V/P40G/Q125H/Q99D/R33Q/R42Y/R54Q/S133A/S66F/T210M/V115G/Y107V/Y59L/Y89S)
HLA-DRB1*1302 = HLA-DRB1*1302 (Homo sapiens, UniProt P01903+P01911, A100E/A169T/K41T/L162R/M171V/P40S/Q125H/Q178H/Q39Y/Q99D/R42S/S66N/T262R/V115G/W38E/Y61H)
HLA-DRB1*1101 = HLA-DRB1*1101 (Homo sapiens, UniProt P01903+P01911, A100R/A169T/A87E/I96F/K41T/L162R/M171V/P40S/Q125H/Q178H/Q39Y/Q99D/R42S/S66Y/T262R/V115G/W38E)
HLA-DRB1*0401 = molecular target: T1, HLA-DRB1*0401 (Homo sapiens, UniProt P01903+P01911, A100K/A169T/F76Y/I96L/K127E/L162R/M171V/N62H/P40V/Q125Y/R42H/S133A/S149N/S66Y/V115G/V209L/W38E)
T1 construct: homozygous lymphoblastoid B-cell lines (International Histocompatibility Working Group); host or cells: human HLA-DRB1*0401 homozygous lymphoblastoid B-cell line

Chain of HLA-DRB1*1302 (P01903 26-254 limits assumed, other chains not shown): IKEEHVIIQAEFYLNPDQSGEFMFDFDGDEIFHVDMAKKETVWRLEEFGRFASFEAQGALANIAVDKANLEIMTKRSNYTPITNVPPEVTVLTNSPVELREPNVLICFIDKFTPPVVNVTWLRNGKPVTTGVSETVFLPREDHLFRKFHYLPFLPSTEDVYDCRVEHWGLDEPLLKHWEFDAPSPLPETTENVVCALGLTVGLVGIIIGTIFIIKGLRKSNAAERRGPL
Chain of HLA-DRB1*1101 (P01903 26-254 limits assumed, other chains not shown): as above

**Q.** How did the inhibition at 250 µM (HLA-DRB1*0701) turn out when DKSFISEANSFRNEE [compound 39149] was run?
**A.** 42.8%

**Q.** And the inhibition at 250 µM (HLA-DRB1*1302)?
**A.** 33.5%

**Q.** What about the inhibition at 250 µM (HLA-DRB1*1101) of the same sequence?
**A.** 36.5%

**Q.** And the IC50 (HLA-DRB1*0401)?
**A.** 26.3 µM

**Q.** What about the inhibition at 250 µM (HLA-DRB1*0401) of the same sequence?
**A.** 85.8%

**Q.** For KLKYIFKRRKTMKKK [compound 39151], which inhibition at 250 µM (HLA-DRB1*0701) is on record?
**A.** 36%

**Q.** And the inhibition at 250 µM (HLA-DRB1*1302)?
**A.** 13.1%

**Q.** And the IC50 (HLA-DRB1*1101)?
**A.** 51.1 µM

**Q.** And the inhibition at 250 µM (HLA-DRB1*1101)?
**A.** 78.5%

**Q.** What about the IC50 (HLA-DRB1*0401) of the same sequence?
**A.** 40 µM

**Q.** And the inhibition at 250 µM (HLA-DRB1*0401)?
**A.** 65.3%

**Q.** With LKPFYSLETMLMANS [compound 39147] as the sequence, how does the IC50 (HLA-DRB1*0701) read?
**A.** 26 µM

**Q.** And the inhibition at 250 µM (HLA-DRB1*0701)?
**A.** 83.2%

**Q.** What about the IC50 (HLA-DRB1*1302) of the same sequence?
**A.** 79 µM

**Q.** What about the inhibition at 250 µM (HLA-DRB1*1302) of the same sequence?
**A.** 63%

**Q.** And the IC50 (HLA-DRB1*1101)?
**A.** 23 µM

**Q.** What about the inhibition at 250 µM (HLA-DRB1*1101) of the same sequence?
**A.** 79.3%

**Q.** And the IC50 (HLA-DRB1*0401)?
**A.** 4.6 µM

**Q.** And the inhibition at 250 µM (HLA-DRB1*0401)?
**A.** 92.6%

**Q.** What does the source list for NVRKFFLNDVSSIRH [compound 39148]?
**A.** IC50 (HLA-DRB1*0701): 39.7 µM; inhibition at 250 µM (HLA-DRB1*0701): 79.9%; IC50 (HLA-DRB1*1302): 7.4 µM; inhibition at 250 µM (HLA-DRB1*1302): 94.2%; IC50 (HLA-DRB1*1101): 83.4 µM; inhibition at 250 µM (HLA-DRB1*1101): 73.8%; IC50 (HLA-DRB1*0401): 11.9 µM; inhibition at 250 µM (HLA-DRB1*0401): 83%

**Q.** NYEIYIASSSNIYLM [compound 39046] was tested. Which IC50 (HLA-DRB1*0701) did it give?
**A.** 23.3 µM

**Q.** What about the inhibition at 250 µM (HLA-DRB1*0701) of the same sequence?
**A.** 91.5%

**Q.** What about the IC50 (HLA-DRB1*1302) of the same sequence?
**A.** 29.6 µM

**Q.** What about the inhibition at 250 µM (HLA-DRB1*1302) of the same sequence?
**A.** 92.8%

**Q.** What about the IC50 (HLA-DRB1*1101) of the same sequence?
**A.** 120 µM

**Q.** And the inhibition at 250 µM (HLA-DRB1*1101)?
**A.** 82.9%

**Q.** What about the IC50 (HLA-DRB1*0401) of the same sequence?
**A.** 28.4 µM

**Q.** And the inhibition at 250 µM (HLA-DRB1*0401)?
**A.** 91.8%

**Q.** Which results are given for QTAFRKFFKKIISLG [compound 39150]?
**A.** IC50 (HLA-DRB1*0701): 51.8 µM; inhibition at 250 µM (HLA-DRB1*0701): 67.2%; inhibition at 250 µM (HLA-DRB1*1302): 7.7%; IC50 (HLA-DRB1*1101): 83.4 µM; inhibition at 250 µM (HLA-DRB1*1101): 87.6%; IC50 (HLA-DRB1*0401): 33.7 µM; inhibition at 250 µM (HLA-DRB1*0401): 83.6%

**Q.** For TPIIVKYDNTHAKNR [compound 39048], which inhibition at 250 µM (HLA-DRB1*0701) is on record?
**A.** 10.5%

**Q.** And the inhibition at 250 µM (HLA-DRB1*1302)?
**A.** 3.3%

**Q.** And the inhibition at 250 µM (HLA-DRB1*1101)?
**A.** 16.8%

**Q.** And the IC50 (HLA-DRB1*0401)?
**A.** 11.9 µM

**Q.** And the inhibition at 250 µM (HLA-DRB1*0401)?
**A.** 90.7%
